According to ChEMBL document CHEMBL3425444, “Discovery of piperidin-4-yl-aminopyrimidine derivatives as potent non-nucleoside HIV-1 reverse transcriptase inhibitors” (Eur J Med Chem, 2015):

Legend:
[1] = tested on: Human immunodeficiency virus 1; assay: Antiviral activity against wild type HIV1 3B infected in human MT4 cells assessed as protection from virus-induced cytopathicity after 4 days by MTT assay; assay type: functional, organism-based; settings: Human immunodeficiency virus 1, 3B, MT4, 96 h
[2] = Cytotoxicity against human MT4 cells assessed as reduction of cell viability after 4 days by MTT assay; assay type: cell-based
[3] = Selectivity index, ratio of CC50 for human MT4 cells to EC50 for HIV1 3B infected in human MT4 cells; assay type: toxicity, cell-based; settings: HIV1 3B infected MT4 cells, read-out: Selectivity Index
[4] = Retention time of the compound by HPLC analysis; assay type: physicochemical
[5] = tested on: Human immunodeficiency virus 2; assay: Antiviral activity against HIV-2 ROD infected in human MT4 cells assessed as protection from virus-induced cytopathicity after 4 days by MTT assay; assay type: functional, organism-based; settings: Human immunodeficiency virus 2, ISOLATE ROD, MT4, 96 h
[6] = tested on: Human immunodeficiency virus 1; assay: Antiviral activity against HIV-1 RES056 harboring reverse transcriptase K103N/Y181C double mutant infected in human MT4 cells assessed as protection from virus-induced cytopathicity after 4 days by MTT assay; assay type: functional, organism-based; settings: Human immunodeficiency virus 1, RES056, MT4, 96 h
[7] = target: Human immunodeficiency virus type 1 reverse transcriptase (Human immunodeficiency virus 1, UniProt Q72547); assay: Inhibition of HIV1 recombinant wild type reverse transcriptase p66/p51 assessed as reduction in biotin-labeled dUTP incorporation into DNA using polyr(A) x oligo(dT)16 template/primer hybrid

Row | SMILES | EC50 [1] [µM] | CC50 at 96 h [2] [µM] | selectivity ratio [3] | Retention_time [4] [min] | EC50 [5] [µM] | EC50 [6] [µM] | IC50 [7] [µM]
1 | Cc1ccccc1NC(=O)CN1CCC(Nc2nccc(Oc3c(C)cc(C#N)cc3C)n2)CC1 | 0.0616 | 1.25 | 20 | 11.33 | > 1.25 | > 1.25 | –
2 | Cc1cccc(NC(=O)CN2CCC(Nc3nccc(Oc4c(C)cc(C#N)cc4C)n3)CC2)c1 | 0.0066 | 1.68 | 254 | 11.43 | > 1.68 | > 1.68 | –
3 | Cc1ccc(NC(=O)CN2CCC(Nc3nccc(Oc4c(C)cc(C#N)cc4C)n3)CC2)cc1 | 0.0055 | 2.02 | 367 | 11.29 | > 2.02 | > 2.02 | 0.181
4 | Cc1cc(C)cc(NC(=O)CN2CCC(Nc3nccc(Oc4c(C)cc(C#N)cc4C)n3)CC2)c1 | 0.0149 | 2.31 | 155 | 12.18 | > 2.31 | > 2.31 | –
5 | Cc1ccc(NC(=O)CN2CCC(Nc3nccc(Oc4c(C)cc(C#N)cc4C)n3)CC2)cc1C | 0.0085 | 1.51 | 177 | 12.21 | > 1.51 | > 1.51 | –
6 | COc1ccc(NC(=O)CN2CCC(Nc3nccc(Oc4c(C)cc(C#N)cc4C)n3)CC2)cc1 | 0.0035 | 1.56 | 446 | 10.82 | > 1.56 | > 1.56 | –
7 | Cc1cc(C#N)cc(C)c1Oc1ccnc(NC2CCN(CC(=O)Nc3ccccc3F)CC2)n1 | 0.007 | 119 | 16900 | 11.43 | > 119 | > 119 | 0.207
8 | Cc1cc(C#N)cc(C)c1Oc1ccnc(NC2CCN(CC(=O)Nc3cccc(F)c3)CC2)n1 | 0.0061 | 1.41 | 231 | 11.41 | > 1.41 | > 1.41 | –
9 | Cc1cc(C#N)cc(C)c1Oc1ccnc(NC2CCN(CC(=O)Nc3ccc(F)cc3)CC2)n1 | 0.0042 | 1.81 | 431 | 10.85 | > 1.81 | > 1.81 | 0.204
10 | Cc1cc(C#N)cc(C)c1Oc1ccnc(NC2CCN(CC(=O)Nc3ccccc3Cl)CC2)n1 | 0.0346 | 1.51 | 44 | 12.14 | > 1.51 | > 1.51 | –
11 | Cc1cc(C#N)cc(C)c1Oc1ccnc(NC2CCN(CC(=O)Nc3cccc(Cl)c3)CC2)n1 | 0.0059 | 1.26 | 214 | 11.95 | > 1.26 | > 1.26 | –
12 | Cc1cc(C#N)cc(C)c1Oc1ccnc(NC2CCN(CC(=O)Nc3ccc(Cl)cc3)CC2)n1 | 0.0061 | 0.998 | 164 | 11.62 | > 0.998 | > 0.998 | –
13 | Cc1cc(C#N)cc(C)c1Oc1ccnc(NC2CCN(CC(=O)Nc3ccc(Cl)cc3Cl)CC2)n1 | 0.118 | 1.75 | 15 | 13.21 | > 1.75 | > 1.75 | –
14 | Cc1cc(C#N)cc(C)c1Oc1ccnc(NC2CCN(CC(=O)Nc3ccc(Cl)c(Cl)c3)CC2)n1 | 0.0209 | 1.28 | 61 | 12.62 | > 1.28 | > 1.28 | –
15 | Cc1cc(C#N)cc(C)c1Oc1ccnc(NC2CCN(CC(=O)Nc3cc(Cl)cc(Cl)c3)CC2)n1 | 0.0761 | 3.52 | 46 | 13.08 | > 3.52 | > 3.52 | –
16 | Cc1cc(C#N)cc(C)c1Oc1ccnc(NC2CCN(CC(=O)Nc3c(Cl)cc(Cl)cc3Cl)CC2)n1 | ≥ 0.304 | 1.5 | ≤ 5 | 11.85 | > 1.5 | > 1.5 | –
17 | Cc1cc(C#N)cc(C)c1Oc1ccnc(NC2CCN(CC(=O)Nc3ccc(Br)cc3)CC2)n1 | 0.0062 | 1.48 | 238 | 11.85 | > 1.48 | > 1.48 | –
18 | Cc1cc(C#N)cc(C)c1Oc1ccnc(NC2CCN(CC(=O)Nc3ccc(C#N)cc3)CC2)n1 | 0.0029 | 0.602 | 208 | 10.72 | > 0.602 | > 0.602 | –
19 | Cc1cc(C#N)cc(C)c1Oc1ccnc(NC2CCN(CC(=O)Nc3ccc(C#N)cc3F)CC2)n1 | 0.008 | 1.96 | 245 | 11.27 | > 1.96 | > 1.96 | 0.174
20 | Cc1cc(C#N)cc(C)c1Oc1ccnc(NC2CCN(CC(=O)Nc3ccccc3[N+](=O)[O-])CC2)n1 | 0.0419 | 59.3 | 1420 | 11.75 | > 59.3 | > 59.3 | 0.193
21 | Cc1cc(C#N)cc(C)c1Oc1ccnc(NC2CCN(CC(=O)Nc3cccc([N+](=O)[O-])c3)CC2)n1 | 0.0078 | ≥ 0.379 | ≥ 49 | 11.49 | > 0.379 | > 0.379 | 0.156
22 | Cc1cc(C#N)cc(C)c1Oc1ccnc(NC2CCN(CC(=O)Nc3ccc([N+](=O)[O-])cc3)CC2)n1 | 0.0058 | 0.518 | 89 | 11.13 | > 0.518 | > 0.518 | 0.136
23 | Cc1cc(C#N)cc(C)c1Oc1ccnc(NC2CCN(CC(=O)Nc3ccc(O)cc3)CC2)n1 | 0.0021 | 2.18 | 1040 | 10.25 | > 2.18 | > 2.18 | 0.102
24 | Cc1cc(C#N)cc(C)c1Oc1ccnc(NC2CCN(CC(=O)Nc3ccc(S(N)(=O)=O)cc3)CC2)n1 | 0.0019 | 1.61 | 845 | 9.11 | > 1.61 | > 1.61 | 0.116
25 | Cc1cc(S(N)(=O)=O)ccc1NC(=O)CN1CCC(Nc2nccc(Oc3c(C)cc(C#N)cc3C)n2)CC1 | 0.0053 | 1.64 | 309 | 9.61 | > 1.64 | > 1.64 | 0.166
26 | CC(C)Nc1cccnc1N1CCN(C(=O)c2cc3cc(NS(C)(=O)=O)ccc3[nH]2)CC1 [DELAVIRDINE] | – | > 43.8 | > 67 | – | – | > 43.8 | –
27 | O=C1Nc2ccc(Cl)cc2[C@@](C#CC2CC2)(C(F)(F)F)O1 [EFAVIRENZ] | 0.0063 | > 6.34 | – | – | – | – | –
28 | Cc1cc(C#N)cc(C)c1Oc1nc(Nc2ccc(C#N)cc2)nc(N)c1Br [ETRAVIRINE] | – | > 4.59 | > 1120 | – | – | 0.0253 | –
